Reference: patent US11633413B2, “Composition for preventing or improving menopausal symptom comprising novel ginsenoside” (AMOREPACIFIC CORPORATION, priority 2019, dated 2023)
“Also recorded” adds a separate entry of the source.

Experiments:
Type in all cases: cell-based
[1] = molecular target: T1, estrogen receptor ERα (Homo sapiens, UniProt P03372); experiment: human ERα reporter assay (ERE-luc, Indigo Bioscience #IB00421-48P); details: for increase of the activity of the estrogen receptor ERα: Test Example 1, 10 μg/mL for 24 hours, FIG. 11, FIG. 14; for activity of ERα: Test Example 3, same manner as Test Example 1, FIG. 16
T1 sequence (P03372 1-595): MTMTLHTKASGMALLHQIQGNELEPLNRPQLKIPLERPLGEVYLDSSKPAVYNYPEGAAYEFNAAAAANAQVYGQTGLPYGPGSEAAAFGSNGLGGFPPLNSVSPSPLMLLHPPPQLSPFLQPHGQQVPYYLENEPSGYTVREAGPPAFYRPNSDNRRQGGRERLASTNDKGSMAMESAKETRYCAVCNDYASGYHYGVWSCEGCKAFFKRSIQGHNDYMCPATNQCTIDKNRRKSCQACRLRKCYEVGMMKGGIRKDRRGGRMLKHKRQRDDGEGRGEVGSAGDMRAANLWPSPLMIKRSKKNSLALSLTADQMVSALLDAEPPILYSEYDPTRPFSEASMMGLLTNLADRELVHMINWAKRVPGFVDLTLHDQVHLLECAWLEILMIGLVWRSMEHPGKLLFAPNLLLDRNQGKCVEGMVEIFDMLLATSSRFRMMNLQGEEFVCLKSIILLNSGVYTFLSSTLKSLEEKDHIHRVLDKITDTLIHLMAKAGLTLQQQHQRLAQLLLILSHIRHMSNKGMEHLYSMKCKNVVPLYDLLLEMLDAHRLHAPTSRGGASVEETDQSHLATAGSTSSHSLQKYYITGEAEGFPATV
Description: (§1) After treating each of the novel ginsenoside GS #10 according to an exemplary embodiment of the present disclosure and other ginsenosides GS #01 to GS #06 isolated from the ginseng seed extract with a human ERα/β reporter assay panel (#IB00421-48P; Indigo Bioscience) at a concentration of 10 μg/mL for 24 hours, the increase of the activity of the estrogen receptors ERα and ERβ was analyzed. The #IB00421-48P kit comprises cells in which ERα and ERβ are overexpressed, respectively, and comprises the ERE-luc reporter gene. If the activity of the ER is increased by treating with the example or a comparative example, ERα and ERβ bind to ERE, thereby inducing the expression of luciferase. Therefore, the activity of ERα and ERβ can be measured by measuring the light intensity of the cells. As the comparative example, a methanol extract of ginseng seed (seeds of Panax ginseng) used for the isolation of the ginsenosides in Example 1 was used.
(§2) It is reported that, although the increased activity of the estrogen receptors ERα and ERβ can lead to alleviation of menopausal symptoms, ERs are overexpressed in more than 70% of breast cancer cells, mainly due to increased ERα (ESR1) (see Deroo B J et al., J Clin Invest 116:561 (2006)).
(§3) The effect of preventing or improving menopausal symptoms of the novel ginsenoside […] according to an exemplary embodiment of the present disclosure was compared with that of ginsenosides Rg1, Rg3 and Rb1 (purchased from Sigma), which are red ginseng marker compounds, as comparative examples. Ginsenoside Rg3 has the following chemical structure. The experiment was performed in the same manner as in Test Example 1.

[2] = system: MCF-7 breast cancer cells; experiment: growth of MCF-7 breast cancer cells (cell counting); details: 10 μg/mL for 48 hours; number of cells counted; FIG. 15
[3] = molecular target: estrogen receptor ERβ (Homo sapiens, UniProt Q92731); experiment: human ERβ reporter assay (ERE-luc, Indigo Bioscience #IB00421-48P); details: for activity of ERβ: same manner as Test Example 1
Chain of estrogen receptor ERβ (Q92731 whole entry): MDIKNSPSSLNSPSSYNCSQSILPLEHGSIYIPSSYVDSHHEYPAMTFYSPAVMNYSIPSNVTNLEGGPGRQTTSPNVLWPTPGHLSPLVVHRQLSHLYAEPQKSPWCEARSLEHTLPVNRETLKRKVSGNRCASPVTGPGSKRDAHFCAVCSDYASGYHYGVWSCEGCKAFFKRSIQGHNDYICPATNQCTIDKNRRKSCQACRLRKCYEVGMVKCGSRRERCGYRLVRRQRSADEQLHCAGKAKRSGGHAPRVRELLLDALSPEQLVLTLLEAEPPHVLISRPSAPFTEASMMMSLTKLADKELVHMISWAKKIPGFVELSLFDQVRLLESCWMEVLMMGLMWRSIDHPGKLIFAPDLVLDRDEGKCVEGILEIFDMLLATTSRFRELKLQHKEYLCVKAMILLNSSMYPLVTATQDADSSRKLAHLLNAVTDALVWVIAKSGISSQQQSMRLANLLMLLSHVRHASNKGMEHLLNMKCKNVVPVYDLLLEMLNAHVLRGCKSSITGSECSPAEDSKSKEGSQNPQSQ
Description: as §1, §2, §3

[4] = system: SH-SY5Y cells; experiment: cytotoxicity, cell counting kit (CCK-8); details: 0.1, 1, 5, 10, 20 and 50 μM, FIG. 18
Description: Cell growth in the presence of the novel ginsenoside GS #10 according to an exemplary embodiment of the present disclosure was evaluated using a cell counting kit (CCK-8) in order to exclude the possibility that the ginsenoside may affect the effect of preventing or improving menopausal symptoms through cytotoxic activity. The experimental method is as follows.
10 μL of a CCK-8 reagent was added to SH-SY5Y cells (Dojindo, Md., USA) in a 96-well plate and left at 37° C. for 2 hours. Then, absorbance was measured at 450 nm. Cell viability was represented as the percentage (%) of the absolute optical density of each sample relative to an untreated sample. The concentration of the novel ginsenoside GS #10 according to an exemplary embodiment of the present disclosure in the medium in which the cells were cultured was 0.1, 1, 5, 10, 20 and 50 μM, respectively.

Row | SMILES | increase of the activity of the estrogen receptor ERα [1] | activity of ERα [1] | growth of MCF-7 breast cancer cells (side effect of promoting cancer cell growth) [2] | activity of ERβ ([3]; Test Example 3, FIG. 17) | further results
1 | CC(C)=CCC[C@](C)(O[C@@H]1O[C@H](CO[C@@H]2O[C@H](CO)[C@@H](O)[C@H](O)[C@H]2O)[C@@H](O)[C@H](O)[C@H]1O)[C@H]1CC[C@]2(C)[C@@H]1[C@H](O)C[C@@H]1[C@@]3(C)CC[C@H](O[C@@H]4O[C@H](CO)[C@@H](O)[C@H](O)[C@H]4O[C@@H]4O[C@H](CO)[C@@H](O)[C@H](O)[C@H]4O)C(C)(C)[C@@H]3CC[C@]12C [GS #05, ginsenoside Rb1] | slightly increased the activity of ERα | activated the estrogen receptors to some extent | – | – | –
2 | C[C@]12CC[C@@H]3c4ccc(O)cc4CC[C@H]3[C@@H]1CC[C@@H]2O [17β-estradiol, 17β-Estradiol, reference compound] | – | – | promoted the growth of the breast cancer cells | – | –
3 | CC(C)=CCC[C@](C)(O)[C@H]1CC[C@]2(C)[C@@H]1[C@H](O)C[C@@H]1[C@@]3(C)CC[C@H](O[C@@H]4O[C@H](CO)[C@@H](O)[C@H](O)[C@H]4O[C@@H]4O[C@H](CO)[C@@H](O)[C@H](O)[C@H]4O)C(C)(C)[C@@H]3CC[C@]12C [Rg3, Ginsenoside Rg3, reference compound] | – | activated the estrogen receptors to some extent | – | activated the estrogen receptors to some extent | –
4 | CC(C)=CCC[C@](C)(O[C@@H]1O[C@H](CO)[C@@H](O)[C@H](O)[C@H]1O)[C@H]1CC[C@]2(C)[C@@H]1[C@H](O)C[C@@H]1[C@@]3(C)CC[C@H](O)C(C)(C)[C@@H]3[C@@H](O[C@@H]3O[C@H](CO)[C@@H](O)[C@H](O)[C@H]3O)C[C@]12C [GS #01, ginsenoside Rg1] | – | activated the estrogen receptors to some extent | – | – | –
5 | CC(C)=CCC[C@](C)(O[C@@H]1O[C@H](CO)[C@@H](O)[C@H](O)[C@H]1O)[C@H]1CC[C@]2(C)[C@@H]1[C@H](O)C[C@@H]1[C@@]3(C)CC[C@H](O)C(C)(C)[C@@H]3[C@@H](O[C@@H]3O[C@H](CO)[C@@H](O)[C@H](O)[C@H]3O[C@@H]3O[C@@H](C)[C@H](O)[C@@H](O)[C@H]3O)C[C@]12C [GS #03, ginsenoside Re] | slightly increased the activity of ERα | – | – | – | –
6 | CC1(C)C(=O)CC[C@@]2(C)C1[C@@H](O[C@H]1OC(CO)[C@H](O)C(O)C1O[C@H]1OC(CO)[C@H](O)C(O)C1O)C[C@]1(C)C2C[C@@H](O)C2C([C@]3(C)CC[C@H](C(C)(C)O)O3)CC[C@]21C (stereo partly drawn) [GS #10, (20S,24R)-6-O-β-D-glucopyranosyl(1→2)-β-D-glucopyranoside-dammar-3-one-20,24-epoxy-6a,12b,25-triol] | slightly increased the activity of ERα; also recorded: had an effect of increasing the activity | not higher than Rg1 and Rb1 | did not show such a side effect | 136% | increase of the activity of the estrogen receptor ERβ ([3]; Test Example 1, 10 μg/mL for 24 hours, FIG. 12, FIG. 14): activated ERβ; also recorded: had an effect of increasing the activity; activity ratio of ERβ to ERα compared with red ginseng marker compounds ([3]; Test Example 3, FIG. 16 and FIG. 17): higher than the ginsenosides Rb1, Rg1 and Rg3; activity of ERβ as compared to the ginsenosides Rg1 and Rb1 ([3]; Test Example 3, FIG. 17): at least 3 times; cytotoxicity (cell viability) [4]: did not exhibit cytotoxicity up to 50 μM
